According to patent US8772285B2, “Benzothiazoles having histamine H3 receptor activity” (High Point Pharmaceuticals, LLC, priority 2006, dated 2014):
Where a name gives a salt, the structure may show the parent alone.

How the values were obtained:
[1] = tested on: Sprague-Dawley (SD) male rats; test: Open cage schedule-fed rat model; format: in vivo; settings: dose 15 mg/kg p.o.
Method: The ability of the present compounds to reduce weight is determined using the in vivo open cage Schedule-fed rat model.
Sprague-Dawley (SD) male rats of an age of about 1½ to 2 months and a weight of about 200-250 g are purchased from Møllegård Breeding and Research Centre A/S (Denmark). On arrival they are allowed some days of acclimatisation before being placed in individual open plastic cages. They are habituated to the presence of food (Altromin pelleted rat chow) in their home cage for only 7 hours each day (from 07.30 to 14.30, seven days a week). Water is present ad libitum. Once the consumption of food has stabilised after 7 to 9 days, the animals are ready for use.
Each animal is used only once to avoid carry-over effects between treatments. During the test sessions, the test compound is administered intraperitoneally or orally 30 min before the start of the sessions. One group of animals is administered the test compound at different doses, and a control group of animals receives vehicle. Food and water intake are monitored at 1, 2 and 3 hours post administration.
Any side effects (manifested as barrel-rolling, bushy fur etc.) may rapidly be detected, since the animals are kept in transparent plastic cages to enable continuous monitoring.

human H3 receptor = human H3 receptor (Homo sapiens (Human), UniProt Q9Y5N1); test: Functional assay II, [35S]GTPγS assay; format: biochemical; settings: membranes from CHO cells stably expressing the human H3 receptor
human H3 receptor, sequence (Q9Y5N1 whole entry): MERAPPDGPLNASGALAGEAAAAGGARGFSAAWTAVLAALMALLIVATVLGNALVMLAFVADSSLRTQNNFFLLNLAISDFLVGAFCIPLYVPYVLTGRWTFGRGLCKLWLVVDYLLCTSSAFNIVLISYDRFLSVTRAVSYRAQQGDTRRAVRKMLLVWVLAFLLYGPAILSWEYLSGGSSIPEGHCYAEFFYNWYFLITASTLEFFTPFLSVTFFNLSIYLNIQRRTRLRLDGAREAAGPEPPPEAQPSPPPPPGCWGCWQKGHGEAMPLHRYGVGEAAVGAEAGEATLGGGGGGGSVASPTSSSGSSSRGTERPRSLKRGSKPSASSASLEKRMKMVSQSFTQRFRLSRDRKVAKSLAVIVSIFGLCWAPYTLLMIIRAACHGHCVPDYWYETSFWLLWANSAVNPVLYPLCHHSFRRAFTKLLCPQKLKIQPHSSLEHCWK
Method: The ability of the compounds to bind and interact with the human H3 receptor as agonists, inverse agonists and/or antagonists, is determined by a functional assay, named [^35S]GTPγS assay. The assay measures the activation of G proteins by catalyzing the exchange of guanosine 5′-diphosphate (GDP) by guanosine 5′-triphosphate (GTP) at the -subunit. The GTP-bounded G proteins dissociate into two subunits, GGTP and Gβγ, which in turn regulate intracellular enzymes and ion channels. GTP is rapidly hydrolysed by the G-sub-unit (GTPases) and the G protein is deactivated and ready for a new GTP exchange cycle. […] GTPγS, a non-hydrolysed analogue of GTP, is determined. This process can be monitored in vitro by incubating cell membranes containing the G protein coupled receptor H3 with GDP and [^35S] […] This procedure is repeated twice except for the last homogenization step, the protein concentration is determined, and membranes are diluted to a protein concentration of 2 mg/ml, aliquoted and kept at −80° C. until use.
In order to study the presence and the potency of an inverse agonist/antagonist, the H3-receptor agonist ligand R-α-methyl histamine (RAMHA) is added. The ability of the test compound to counteract the effect of RAMHA is measured. […] The plates are centrifuged at 1500 rpm for 10 min and the radioactivity is measured using a Top-counter. […]

Row | Ki (human H3 receptor) | Compound | Open cage schedule-fed rat model, food intake at 3 h [1]
1 | 1.8 nM | O=C(O)C(F)(F)F.c1cc2nc(N3CCN(C4CC4)CC3)sc2cc1CN1CCCC1 [Example 17, 2-(4-Cyclopropylpiperazin-1-yl)-6-(pyrrolidin-1-ylmethyl)benzothiazole, trifluoroacetate] | 81.2 % of vehicle
2 | 0.9 nM | c1cc2nc(N3CCN(C4CC4)CC3)sc2cc1CNC1CC1 [Example 27, Cyclopropyl-[2-(4-cyclopropylpiperazin-1-yl)benzothiazol-6-ylmethyl]-amine, trifluoroacetate] | 82.9 % of vehicle
